Measured values taken from US6465527B1, “Iodinated hydrocarbon pesticide” (priority 1999, dated 2002).
Read-outs that look alike come from different tables or passages of the source.

Columns and labels:
Type in all cases: in vivo
[1] = tested on: Cowpea weevil, Callosobruchus maculatus (F.); assay: Fumigant toxicity, Cowpea weevil; design: concentration or dose not given beside the values; conditions: 30 adults
Procedure: (§1) Shown in Table 2 is the toxicity of both monoiodinated and diiodinated hydrocarbons to the German and American cockroach and the Cowpea weevil after 24 hours of exposure.

Heterodera glycines = assay: Greenhouse nematicide test, diiodinated C2-C8 hydrocarbons in infested field soil (Experiments 1 and 2); conditions: rates ≧5.0 mg
Procedure: (§2) Additionally, the nematicidal properties of iodinated hydrocarbons were investigated in greenhouse experiments with field soil infested with Meloidogyne arenaria and Heterodera Glycines. Chemicals were added directly to infested solid at rates <100 mg/Kg soil. Treated soil was kept moist (approximately 60 percent field capacity) and uncovered for 7-10 days when samples were collected, and the pots were planted with ‘Brim’ soybean, Glycine max. […] 1,2-diiodoethane (C2), 1,3-diiodopropane (C3), 1,4-diiodobutane (C4), 1,5-diiodopentane (C5), 1,6-diiodohexane (C6), and […] were applied to soil rates of 2.5, 5.0, 7.5, and 10 mg/Kg soil. All rates of C2 and C8 were ineffective in reducing M. arenaria juvenile (J2) populations in preplant samples. This was also true for C2 and J2 populations of H. glycines; however, […] rates ≧5.0 mg suppressed J2 populations of H. glycines. […] H. glycines J2 numbers in final soil samples were generally inversely related to rates for C3-C8. […] Applications of C3-C6 to soil increased shoot weights in a manner directly related to dosages but only in a curvilinear pattern.
(§3) In this experiment, the nematicidal properties of various diiodinated hydrocarbons were compared. The nematicidal properties of diiodinated C2-C8 normal hydrocarbons was assessed in a greenhouse experiment with field soil infested with Meloidogyne arenaria [Ma] and Heterodera glycines [Hg]. 1,2-diiodoethane [C2], 1,3-diiodopropane [C3], 1,4-diiodobutane [C4], 1.5-diiodopentane [C5], 1,6-diiodohexane [C6] and 1,8-diiodooctane [C8] were applied to soil at rates of 2.5, 5.0, 7.5, and 10.0 mgs/kg soil. The potted soil was kept moist in a greenhouse for 10 days when preplant samples were collected for analysis, and the pots were planted with ‘Brim’ soybean [Glycine max]. After 7 weeks of growth, the plants were removed and final soil samples taken. Data was collected on weights of fresh roots and shoots, root galling by Ma, and numbers of nematodes in soil and roots. All rates of C2 and C8 were ineffective in reducing Ma juvenile [J2] populations in the preplant samples. This was also true for C2 and J2 populations of Hg; however, C8 rates ≧5.0 mg suppressed J2 populations of Hg. […] Hg J2 numbers in final soil samples were generally inversely related to rates for C3-C8. This pattern of suppression in J2 numbers was also applicable to Ma in the final soil samples but only for C3-C6. […] Applications of C3-C6 to soil increased shoot weights in a manner directly related to dosages but non-linear in pattern.

Meloidogyne arenaria = assay: as above; conditions: for M. arenaria J2 populations in preplant samples: rates ≧5.0 mg
Procedure: as §2, §3

[2] = tested on: German cockroach, Blattella germanica (L.); assay: Fumigant toxicity in sealed glass jar, German cockroach; conditions: 30-60 adult males; for mortality at 50 µL/jar: Blattella germanica, inhaled or nasal
Procedure: (§4) As shown below, Table 1 depicts the toxicity of both monoiodinated and diiodinated hydrocarbons to both the German and the American cockroach after 1 hour of exposure.
as §1
(§5) In this experiment both the insecticidal and nematicidal properties of iodinated hydrocarbons were compared. In determining the insecticidal properties of the iodinated hydrocarbons, both American (Periplaneta americana) and German (Blattella germanica) cockroaches were used. Groups of cockroaches were confined in 0.95-liter glass jars with a small cotton ball. Exactly 50 μl of a test chemical was applied to the cotton ball and the jar was sealed. Knockdown, defined as the inability to walk in a coordinated manner, and mortality were assessed every 15 minutes for the first hour and hourly thereafter for 8 hours and again after 24 hours.

[3] = tested on: American cockroach, Periplaneta americana (L.); assay: Fumigant toxicity in sealed glass jar, American cockroach; conditions: 8-36 adult males; for mortality at 50 µL/jar: Periplaneta americana, inhaled or nasal
Procedure: as §4, §1, §5

[4] = tested on: American (Periplaneta americana) and German (Blattella germanica) cockroaches; assay: Knockdown and mortality of cockroaches in sealed jar (both species); conditions: for Sensitivity of American cockroaches compared with German cockroaches: in vivo; for Knockdown of cockroaches: within 1 hour after treatment, 50 μl on cotton ball in sealed 0.95-liter jar
Procedure: as §5, with “sealed.” for “sealed. Knockdown, defined as the inability to walk in a coordinated manner, and mortality were assessed every 15 minutes for the first hour and hourly thereafter for 8 hours and again after 24 hours.”

[5] = tested on: root-knot [Meloidogyne arenaria]; assay: Greenhouse nematicide test, iodinated C1-C3 hydrocarbons (Experiment 4); conditions: for M. arenaria [J2] juvenile populations in soil: 10 days after application, all rates (0.1, 0.2, 0.4 ml/kg soil)
Procedure: (§6) In this experiment, the nematicidal properties of low molecular weight iodinated hydrocarbons were investigated. The nematicidal properties of iodinated C1-C3 hydrocarbons were evaluated in greenhouse experiments with field soil infested with root-knot [Meloidogyne arenaria] and cyst [Heterodera glycines] nematodes. lodomethane, di-iodomethane, iodoethane, di-iodoethane, and 1-iodopropane were added to soil at rates of 0.1, 0.2 and 0.4 ml/kg soil.
(§7) The treated soil was kept moist for 10 days when soil samples were taken for nematode analysis and ‘Brim’ soybean [Glycine max] planted. Soybeans were allowed to grow for 8 weeks and then were removed from the soil to determine plant growth, root-knot indices and the number of galls generated by M arenaria. […] All compounds except 1-iodopropane increased fresh shoot weight when applied at ≧0.1 ml/kg soil.

[6] = tested on: cyst [Heterodera glycines]; assay: as above; conditions: 10 days after application; all dosages (0.1, 0.2, 0.4 ml/kg soil)
Procedure: as §6, §7

[7] = tested on: 'Brim' soybean [Glycine max]; assay: Soybean growth in treated soil (Experiments 1 and 2)
Procedure: as §2, §3

[8] = 1 h exposure, read-out: % Mortality after 1 h exposure, German cockroach
[9] = 24 h exposure, read-out: % Mortality after 24 h exposure, German cockroach
[10] = 1 h exposure, read-out: % Mortality after 1 h exposure, American cockroach
[11] = 24 h exposure, read-out: % Mortality after 24 h exposure, American cockroach

SMILES	% Mortality after 24 h exposure, Cowpea weevil [1] [%]	H. glycines J2 populations in preplant samples (Heterodera glycines)	M. arenaria J2 populations in preplant samples (Meloidogyne arenaria)	mortality at 50 µL/jar [2, 8] [%]	mortality at 50 µL/jar [2, 9] [%]	mortality at 50 µL/jar [3, 10] [%]	mortality at 50 µL/jar [3, 11] [%]	Sensitivity of American cockroaches compared with German cockroaches [4]	H. glycines J2 populations in soil [6]	Knockdown of cockroaches [4] [%]	also measured
ICCCCCI [1,5-diiodopentane]	37	virtually eliminated	virtually eliminated	0	0	11	0	more sensitive	–	–	–
ICCCCCCI [1,6-diodohexane, 1,6-diiodohexane]	0	virtually eliminated	virtually eliminated	0	0	5	0	more sensitive	–	–	–
CCI [iodoethane]	100	–	–	100	100	100	100	–	ineffective	100	M. arenaria [J2] juvenile populations in soil [5]: ineffective; Gall formation by M. arenaria ([5]; applied at ≧0.2 ml/kg soil): Significant suppression
IC(I)=C(I)I [tetraiodoethylene]	0	–	–	0	3	0	0	–	–	–	–
CCCI [1-iodopropane]	97	–	–	–	–	–	–	–	ineffective	100	M. arenaria [J2] juvenile populations in soil ([5]; listed as 1 iodopropane): ineffective; M. arenaria [J2] juvenile populations in soil ([5]; listed as iodopropane): increased directly; Root galling (root knot) by M. arenaria ([5]; soybean after 8 weeks, rates 0.1-0.4 ml/kg soil): no significant effect; % Mortality after 1 h exposure, German cockroach ([2]; 1 h exposure): 100%; % Mortality after 24 h exposure, German cockroach ([2]; 24 h exposure): 100%; % Mortality after 1 h exposure, American cockroach ([3]; 1 h exposure): 100%; % Mortality after 24 h exposure, American cockroach ([3]; 24 h exposure): 100%
ICCCCCCCCI [1,8-diiodooctane]	0	suppressed	–	0	0	0	0	–	–	–	M. arenaria juvenile (J2) populations in preplant samples (Meloidogyne arenaria; all rates (2.5, 5.0, 7.5, 10 mg/Kg soil)): ineffective; M. arenaria J2 numbers in final soil samples (Meloidogyne arenaria; final soil samples after soybean growth, rates 2.5-10 mg/kg soil): did not change significantly; Shoot weights of soybean ([7]; 2.5 mg rate): increased shoot weights slightly; Shoot weights of soybean ([7]; rates higher than 2.5 mg): no significant effect
